Experimental data: patent US20180334447A1, “2,3,4,5-TETRAHYDROPYRIDIN-6-AMINE DERIVATIVES” (JANSSEN PHARMACEUTICA NV, priority 2015, published 2018)

What was measured:
[1] = target: T1, recombinant BACE1 protein (Homo sapiens, UniProt P56817); assay: BACE1 biochemical FRET based assay - Method 1; details: BACE1, 120 minutes at room temperature, pH 5.0; read-out: Biochemical FRET based assay - Method 1 pIC50 (converted)
T1 construct: recombinant BACE1 protein in a final concentration of 1 μg/ml
Description: (§1) This assay is a Fluorescence Resonance Energy Transfer Assay (FRET) based assay. The substrate for this assay is an APP derived 13 amino acids peptide that contains the ‘Swedish’ Lys-Met/Asn-Leu mutation of the amyloid precursor protein (APP) beta-secretase cleavage site. This substrate also contains two fluorophores: (7-methoxycoumarin-4-yl) acetic acid (Mca) is a fluorescent donor with excitation wavelength at 320 nm and emission at 405 nm and 2,4-Dinitrophenyl (Dnp) is a proprietary quencher acceptor. […] Upon cleavage by BACE1, the fluorophore Mca is separated from the quenching group Dnp, restoring the full fluorescence yield of the donor. The increase in fluorescence is linearly related to the rate of proteolysis.
Briefly in a 384-well format recombinant BACE1 protein in a final concentration of 1 μg/ml is incubated for 120 minutes at room temperature with 10 μm substrate in incubation buffer (40 mM Citrate buffer pH 5.0, 0.04% PEG, 4% DMSO) in the absence or presence of compound. Next the amount of proteolysis is directly measured by fluorescence measurement at T=0 and T=120 (excitation at 320 nm and emission at 405 nm). Results are expressed in RFU (Relative Fluorescence Units), as difference between T120 and T0.
(§2) A best-fit curve is fitted by a minimum sum of squares method to the plot of % Controlmin versus compound concentration. From this an IC50 value (inhibitory concentration causing 50% inhibition of activity) can be obtained.

[2] = target: T2, recombinant BACE2 protein (Homo sapiens, UniProt Q9Y5Z0); assay: BACE2 biochemical FRET based assay; details: BACE2, 450 minutes at room temperature, pH 5.0; read-out: Biochemical FRET based assay pIC50 (converted)
T2 construct: recombinant BACE2 protein in a final concentration of 0.4 μg/ml
T2 sequence (Q9Y5Z0 63-518): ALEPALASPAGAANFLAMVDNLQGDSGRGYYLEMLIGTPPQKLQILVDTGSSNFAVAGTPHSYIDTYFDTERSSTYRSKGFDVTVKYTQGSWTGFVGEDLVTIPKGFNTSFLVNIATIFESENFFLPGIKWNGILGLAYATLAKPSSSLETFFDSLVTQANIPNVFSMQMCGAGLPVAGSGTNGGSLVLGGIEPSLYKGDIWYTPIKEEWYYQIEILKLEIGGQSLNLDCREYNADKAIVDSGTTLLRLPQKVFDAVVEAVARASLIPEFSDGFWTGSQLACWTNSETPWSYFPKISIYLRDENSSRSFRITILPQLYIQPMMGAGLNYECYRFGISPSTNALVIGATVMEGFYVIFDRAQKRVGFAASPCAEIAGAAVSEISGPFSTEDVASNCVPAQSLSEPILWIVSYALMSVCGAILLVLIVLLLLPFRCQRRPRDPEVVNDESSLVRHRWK
Description: as §1, with “assay” for “assay is an APP derived 13 amino acids peptide that”, “the beta-secretase,” for “BACE1,”
Briefly in a 384-well format recombinant BACE2 protein in a final concentration of 0.4 μg/ml is incubated for 450 minutes at room temperature with 10 μM substrate in incubation buffer (50 mM Citrate buffer pH 5.0, 0.05% PEG, no DMSO) in the absence or presence of compound. Next the amount of proteolysis is directly measured by fluorescence measurement at T=0 and T=450 (excitation at 320 nm and emission at 405 nm). Results are expressed in RFU (Relative Fluorescence Units), as difference between T450 and T0.
as §2

[3] = tested on: Abeta 1-42 produced and secreted into the medium of human neuroblastoma SKNBE2 cells; assay: Cellular αLisa assay in SKNBE2 cells, Abeta 42; type: cell-based; details: SKNBE2 cells expressing hAPP695, incubated for 18 hours; for IC50: Homo sapiens, SKNBE2, 18 h, read-out: Cellular αLisa assay in SKNBE2 cells Abeta 42 pIC50 (converted)
Description: In two αLisa assays the levels of Abeta 1-42 produced and secreted into the medium of human neuroblastoma SKNBE2 cells are quantified. The assay is based on the human neuroblastoma SKNBE2 expressing the wild type Amyloid Precursor Protein (hAPP695). The compounds are diluted and added to these cells, incubated for 18 hours and then measurements of Abeta 1-42 are taken. Abeta 1-42 are measured by sandwich αLisa. αLisa is a sandwich assay using biotinylated antibody AbN/25 attached to streptavidin coated beads and antibody cAb42/26 conjugated acceptor beads for the detection of Abeta 1-42 respectively. In the presence of Abeta 1-42, the beads come into close proximity. The excitation of the donor beads provokes the release of singlet oxygen molecules that trigger a cascade of energy transfer in the acceptor beads, resulting in light emission. Light emission is measured after 1 hour incubation (excitation at […] and emission at 615 nm).
as §2

T1 sequence (P56817 46-501): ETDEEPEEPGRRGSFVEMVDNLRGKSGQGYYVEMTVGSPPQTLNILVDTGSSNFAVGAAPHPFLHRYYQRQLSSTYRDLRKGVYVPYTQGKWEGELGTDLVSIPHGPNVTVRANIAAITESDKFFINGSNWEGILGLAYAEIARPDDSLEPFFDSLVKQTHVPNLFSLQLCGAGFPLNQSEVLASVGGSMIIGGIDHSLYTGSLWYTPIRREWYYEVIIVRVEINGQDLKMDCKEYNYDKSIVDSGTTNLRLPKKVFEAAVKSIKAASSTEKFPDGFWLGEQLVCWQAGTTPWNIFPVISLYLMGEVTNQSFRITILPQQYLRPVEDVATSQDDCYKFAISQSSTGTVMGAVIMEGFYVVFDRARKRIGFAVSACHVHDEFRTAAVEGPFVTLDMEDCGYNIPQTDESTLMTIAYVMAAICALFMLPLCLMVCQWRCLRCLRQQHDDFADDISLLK

IC50 [1]	IC50 [2]	IC50 [3]	Cellular αLisa assay in SKNBE2 cells Abeta 42 pIC50 [3]	Compound
145 nM	537 nM	240 nM		COc1cnc(C(=O)Nc2ccc(F)c([C@@]3(C)N=C(N)[C@@](C)(C#N)C[C@H]3F)c2)cn1 [Compound 6]
12.9 nM	70.8 nM	13.2 nM		COc1cnc(C(=O)Nc2ccc(F)c([C@@]3(C)N=C(N)[C@](C)(C#N)C[C@@H]3F)c2)cn1 [Compound 8]
9.77 nM	66.1 nM		8.16	COc1cnc(C(=O)Nc2ccc(F)c(C3(C)CCC(C)(C#N)C(N)=N3)c2)cn1 (single isomer, unassigned) [Compound 15]
3.63 nM	3.39 nM	1.15 nM		CC1(S(C)(=O)=O)CCC(CF)(c2cc(NC(=O)c3ncc(Cl)cn3)ccc2F)N=C1N (stereo not drawn) [Compound 44]
4.57 nM	3.31 nM	1.86 nM		Cc1nc(C(=O)Nc2ccc(F)c(C3(CF)CCC(C)(S(C)(=O)=O)C(N)=N3)c2)co1 (stereo not drawn) [Compound 40]
3.8 nM	22.4 nM	2.4 nM		CC1(S(C)(=O)=O)CCC(CF)(c2cc(NC(=O)c3cnc(C(F)F)cn3)ccc2F)N=C1N (stereo not drawn) [Compound 42]
3.16 nM	13.5 nM	3.24 nM		COc1cnc(C(=O)Nc2ccc(F)c(C3(CF)CCC(C)(S(C)(=O)=O)C(N)=N3)c2)nc1 (stereo not drawn) [Compound 45]
3.89 nM	21.9 nM	1.12 nM		COc1cnc(C(=O)Nc2ccc(F)c([C@]3(C)CC[C@@](C)(S(C)(=O)=O)C(N)=N3)c2)cn1 [Compound 10]
30.9 nM	93.3 nM	14.5 nM		COc1cnc(C(=O)Nc2ccc(F)c([C@@]3(C)N=C(N)[C@](C)(S(C)(=O)=O)C[C@@H]3F)c2)cn1 [Compound 17]
9.12 nM	64.6 nM	4.47 nM		CC1(S(C)(=O)=O)CCC(CF)(c2cc(NC(=O)c3ncc(C(F)(F)F)cn3)ccc2F)N=C1N (stereo not drawn) [Compound 43]
91.2 nM	977 nM	468 nM		C[C@]1(c2cc(NC(=O)c3cnc(OCF)cn3)ccc2F)N=C(N)[C@](C)(S(C)(=O)=O)CC1(F)F [Compound 24]
24 nM	447 nM	16.6 nM		CO[C@@H]1C[C@@](C)(S(C)(=O)=O)C(N)=N[C@]1(C)c1cc(NC(=O)c2cnc(OCF)cn2)ccc1F [Compound 48a]
6760 nM	> 10000 nM	> 8910 nM		COc1cnc(C(=O)Nc2ccc(F)c([C@@]3(C(F)F)CC[C@@](C)(C#N)C(N)=N3)c2)cn1 [Compound 12]
5750 nM	> 10000 nM	3550 nM		COc1cnc(C(=O)Nc2ccc(F)c([C@@]3(C)N=C(N)[C@@](C)(S(C)(=O)=O)C[C@@H]3F)c2)cn1 [Compound 18]
3.55 nM	4.37 nM	16.6 nM		C[C@@]1(S(C)(=O)=O)CC[C@@](CF)(c2cc(NC(=O)c3ccc(F)cn3)cc(F)c2F)N=C1N [Compound 47]
138 nM	891 nM	339 nM		COc1cnc(C(=O)Nc2ccc(F)c([C@]3(C(F)F)CC[C@](C)(C#N)C(N)=N3)c2)cn1 [Compound 11]
380 nM	302 nM	380 nM		C[C@]1(S(C)(=O)=O)CC[C@@](CF)(c2cc(NC(=O)c3ccc(F)cn3)ccc2F)N=C1N [Compound 19]
3.89 nM	4.17 nM	7.08 nM		CC1(S(C)(=O)=O)CCC(CF)(c2cc(NC(=O)c3ncc(F)cn3)ccc2F)N=C1N (stereo not drawn) [Compound 38]
3.72 nM	32.4 nM	3.47 nM		CCOc1cnc(C(=O)Nc2ccc(F)c(C3(CF)CCC(C)(S(C)(=O)=O)C(N)=N3)c2)cn1 (stereo not drawn) [Compound 37]
257 nM	1350 nM		7.35	COc1cnc(C(=O)Nc2ccc(F)c(C3(C)CCC(C)(C#N)C(N)=N3)c2)cn1 (single isomer, unassigned) [Compound 16]
79.4 nM	562 nM	66.1 nM		COc1cnc(C(=O)Nc2ccc(F)c([C@@]3(C)N=C(N)[C@@](C)(C#N)C[C@@H]3F)c2)cn1 [Compound 7]
53.7 nM	417 nM	50.1 nM		COc1cnc(C(=O)Nc2ccc(F)c([C@]3(CF)CC[C@@](C)(C#N)C(N)=N3)c2)cn1 [Compound 5]
2.4 nM	2.04 nM	3.72 nM		CC1(S(=O)(=O)C2CC2)CCC(CF)(c2cc(NC(=O)c3ccc(F)cn3)ccc2F)N=C1N (stereo not drawn) [Compound 25]
851 nM	5750 nM	692 nM		COc1cnc(C(=O)Nc2ccc(F)c([C@]3(CF)CC[C@](C)(C#N)C(N)=N3)c2)cn1 [Compound 4]
1660 nM	4680 nM	4470 nM		C[C@]1(S(C)(=O)=O)CC(F)(F)[C@@](C)(c2cc(NC(=O)c3cnc(OCF)cn3)ccc2F)N=C1N [Compound 23]
33.9 nM	324 nM	17 nM		CO[C@H]1C[C@@](C)(C#N)C(N)=N[C@]1(C)c1cc(NC(=O)c2cnc(OCF)cn2)ccc1F [Compound 49a]
> 10000 nM	> 10000 nM	> 8910 nM		COc1cnc(C(=O)Nc2ccc(F)c([C@@]3(C(F)F)CC[C@](C)(C#N)C(N)=N3)c2)cn1 [Compound 13]
11.7 nM	115 nM	49 nM		COc1cnc(C(=O)Nc2ccc(F)c([C@]3(C(F)F)CC[C@@](C)(C#N)C(N)=N3)c2)cn1 [Compound 14]
2630 nM	> 10000 nM	1350 nM		COc1cnc(C(=O)Nc2ccc(F)c([C@]3(CF)CC[C@](C)(S(C)(=O)=O)C(N)=N3)c2)cn1 [Compound 1]
